Test results as given in PubChem BioAssay AID256 (DTP/NCI, 2004).
Toxic doses and inconclusive results are not listed. How the source made its calls: active means survival T/C of 150% or more; inactive means T/C below 125% in these data.

Tested on: CD2F1 mice, L1210 leukemia ip, survival T/C
Test: NCI In Vivo Anticancer Drug Screen. Data for tumor model L1210 Leukemia (intraperitoneal) in CD2F1 (CDF1) mice
Settings: endpoint: mean survival time, higher = longer survival
Method in brief: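 Activity against a transplanted murine tumor was judged by comparing the compound group with a vehicle group. The outcome in the treated animals was divided by that in the controls.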

[1] = dose: 100.0 mg/kg/injection, schedule: Q01DX001 (ip), vehicle: saline with Tween-80
[2] = dose: 200.0 mg/kg/injection, schedule: Q01DX001 (ip), vehicle: saline with Tween-80
[3] = dose: 400.0 mg/kg/injection, schedule: Q01DX001 (ip), vehicle: saline with Tween-80
[4] = dose: 100.0 mg/kg/injection, schedule: Q04DX003 (ip), vehicle: saline with Tween-80
[5] = dose: 200.0 mg/kg/injection, schedule: Q04DX003 (ip), vehicle: saline with Tween-80
[6] = dose: 400.0 mg/kg/injection, schedule: Q04DX003 (ip), vehicle: saline with Tween-80
[7] = dose: 100.0 mg/kg/injection, schedule: Q01DX001 (ip), vehicle: saline
[8] = dose: 200.0 mg/kg/injection, schedule: Q01DX001 (ip), vehicle: saline
[9] = dose: 100.0 mg/kg/injection, schedule: Q01DX009 (ip), vehicle: saline with Tween-80
[10] = dose: 200.0 mg/kg/injection, schedule: Q01DX009 (ip), vehicle: saline with Tween-80
[11] = dose: 400.0 mg/kg/injection, schedule: Q01DX009 (ip), vehicle: saline with Tween-80
[12] = dose: 50.0 mg/kg/injection, schedule: Q01DX009 (ip), vehicle: Klucel (hydroxypropylcellulose) (HPC)
[13] = dose: 100.0 mg/kg/injection, schedule: Q01DX009 (ip), vehicle: Klucel (hydroxypropylcellulose) (HPC)
[14] = dose: 200.0 mg/kg/injection, schedule: Q01DX009 (ip), vehicle: Klucel (hydroxypropylcellulose) (HPC)

Measured: T/C

N#CCCN1CCOCC1
inactive: dose: 100.0 mg/kg/injection, schedule: Q01DX009 (ip), vehicle: saline 95 % of control | dose: 100.0 mg/kg/injection, schedule: Q04DX003 (ip), vehicle: saline 92 % of control | dose: 200.0 mg/kg/injection, schedule: Q01DX009 (ip), vehicle: saline 93 % of control | dose: 200.0 mg/kg/injection, schedule: Q04DX003 (ip), vehicle: saline 103 % of control | dose: 400.0 mg/kg/injection, schedule: Q01DX009 (ip), vehicle: saline 101 % of control | dose: 400.0 mg/kg/injection, schedule: Q04DX003 (ip), vehicle: saline 103 % of control

Cc1nc(N)[nH]c(=O)c1-n1nnc2ccccc2c1=O
inactive: [1] 92 % of control | [2] 87 % of control | [3] 89 % of control

CC12CCC(=O)CC1CCC1C2CCC2(C)C(C(=O)O)CCC12 (centres undefined)
inactive: [1] 96 % of control | [2] 102 % of control | [3] 96 % of control

Cc1ccc2scc3c4ccccc4nc-3c2c1
inactive: dose: 100.0 mg/kg/injection, schedule: Q04DX003 (ip), vehicle: acetone 97 % of control

CC(=O)OC1CC2CCC1(C)C2(C)C (centres undefined)
inactive: [4] 101 % of control | [5] 95 % of control

NOc1ccc([N+](=O)[O-])cc1[N+](=O)[O-]
inactive: dose: 25.0 mg/kg/injection, schedule: Q01DX009 (ip), vehicle: saline with Tween-80 89 % of control

C/C=C/CC(C/C=C/C)C1CC[N-]CC1.C/C=C/CC(C/C=C/C)C1CC[N-]CC1.[Cl][Pt+2]([Cl])([Cl])[Cl]
inactive: dose: 12.5 mg/kg/injection, schedule: Q01DX009 (ip), vehicle: other 93 % of control | dose: 100.0 mg/kg/injection, schedule: Q01DX009 (ip), vehicle: other 88 % of control

O=C(O)CCC1CC(=O)OC12CCCCC2 (centres undefined)
inactive: [1] 96 % of control | [2] 96 % of control | [3] 91 % of control

CC/C(=N\[N+](C)(C)C)c1ccccc1
inactive: dose: 18.8 mg/kg/injection, schedule: Q01DX009 (ip), vehicle: saline 96 % of control | dose: 37.5 mg/kg/injection, schedule: Q01DX009 (ip), vehicle: saline 91 % of control

O=C(NCC(S)c1ccc(Cl)cc1)C(F)(F)F (centres undefined)
inactive: dose: 12.5 mg/kg/injection, schedule: Q04DX003 (ip), vehicle: saline with Tween-80 96 % of control | dose: 25.0 mg/kg/injection, schedule: Q04DX003 (ip), vehicle: saline with Tween-80 90 % of control | dose: 50.0 mg/kg/injection, schedule: Q04DX003 (ip), vehicle: saline with Tween-80 96 % of control

Clc1ccc(-c2ccncc2)cc1
inactive: dose: 100.0 mg/kg/injection, schedule: Q04DX002 (ip), vehicle: saline with Tween-80 101 % of control | dose: 200.0 mg/kg/injection, schedule: Q04DX002 (ip), vehicle: saline with Tween-80 108 % of control | dose: 400.0 mg/kg/injection, schedule: Q04DX002 (ip), vehicle: saline with Tween-80 103 % of control

OCC1OC(n2ccc3c2ncn2cnnc32)C(O)C1O (centres undefined)
inactive: dose: 6.25 mg/kg/injection, schedule: Q01DX005 (ip), vehicle: water 104 % of control | dose: 12.5 mg/kg/injection, schedule: Q01DX005 (ip), vehicle: water 103 % of control | dose: 25.0 mg/kg/injection, schedule: Q01DX005 (ip), vehicle: water 92 % of control | dose: 50.0 mg/kg/injection, schedule: Q01DX005 (ip), vehicle: water 92 % of control | dose: 100.0 mg/kg/injection, schedule: Q01DX005 (ip), vehicle: water 92 % of control | dose: 200.0 mg/kg/injection, schedule: Q01DX005 (ip), vehicle: water 89 % of control | dose: 400.0 mg/kg/injection, schedule: Q01DX005 (ip), vehicle: water 95 % of control

CC(=O)Nc1c([N+](=O)[O-])cc2c3c(cccc13)C=C2
inactive: [4] 95 % of control | [5] 92 % of control | [6] 104 % of control

O=C1C=CC(=O)C2C3C=CC(C/C=C\C3)C12 (centres undefined)
inactive: dose: 12.5 mg/kg/injection, schedule: Q04DX002 (ip), vehicle: saline with Tween-80 105 % of control | dose: 25.0 mg/kg/injection, schedule: Q04DX002 (ip), vehicle: saline with Tween-80 94 % of control | dose: 50.0 mg/kg/injection, schedule: Q04DX002 (ip), vehicle: saline with Tween-80 94 % of control

NC/C(=N\O)c1ccc(Cl)cc1
inactive: [7] 97 % of control | [8] 103 % of control

CCOC(=O)CC/C(C)=N\N(C)C
inactive: [9] 103 % of control | [10] 97 % of control | [11] 96 % of control

OC12CC3C4CC(O1)C1C4CC3C12 (centres undefined)
inactive: [7] 100 % of control | [8] 96 % of control | dose: 400.0 mg/kg/injection, schedule: Q01DX001 (ip), vehicle: saline 96 % of control

O=c1cc(-c2ccccc2)[nH]c(=S)[nH]1
inactive: [1] 115 % of control | [2] 102 % of control | [3] 97 % of control

Cc1ccc(S(=O)(=O)Nc2cccc3c(NS(=O)(=O)c4ccc(C)cc4)cccc23)cc1
inactive: [4] 96 % of control | [5] 100 % of control | [6] 96 % of control

COc1ccc2c(oc(=O)c3c(Cl)nc(C)c(C)c32)c1OC
inactive: dose: 25.0 mg/kg/injection, schedule: Q01DX009 (ip), vehicle: Klucel (hydroxypropylcellulose) (HPC) 102 % of control | [12] 95 % of control | [13] 93 % of control | [14] 93 % of control

O=P(Nc1ccccc1)(Oc1c(F)c(F)c(F)c(F)c1F)N(CCCl)CCCl (centres undefined)
inactive: dose: 62.5 mg/kg/injection, schedule: Q01DX001 (ip), vehicle: other 87 % of control | dose: 125.0 mg/kg/injection, schedule: Q01DX001 (ip), vehicle: other 107 % of control | dose: 250.0 mg/kg/injection, schedule: Q01DX001 (ip), vehicle: other 96 % of control | dose: 500.0 mg/kg/injection, schedule: Q01DX001 (ip), vehicle: other 96 % of control

C/C=C1\CN2CCC34c5ccccc5N5C(=O)CCC(C1CC23)C54 (centres undefined)
inactive: dose: 5.0 mg/kg/injection, schedule: Q01DX001 (ip), vehicle: saline 98 % of control | dose: 10.0 mg/kg/injection, schedule: Q01DX001 (ip), vehicle: saline 98 % of control | dose: 20.0 mg/kg/injection, schedule: Q01DX001 (ip), vehicle: saline 98 % of control | dose: 40.0 mg/kg/injection, schedule: Q01DX001 (ip), vehicle: saline 100 % of control

[S-]c1n[n+](-c2ccccc2)c(-c2ccccc2)s1
inactive: dose: 75.0 mg/kg/injection, schedule: Q01DX001 (ip), vehicle: saline with Tween-80 95 % of control | dose: 150.0 mg/kg/injection, schedule: Q01DX001 (ip), vehicle: saline with Tween-80 96 % of control | dose: 300.0 mg/kg/injection, schedule: Q01DX001 (ip), vehicle: saline with Tween-80 102 % of control

COC(=O)c1ccccc1N=NNc1ccc(C(F)(F)F)c([N+](=O)[O-])c1
inactive: [9] 103 % of control | [10] 95 % of control | [11] 95 % of control

CCOC(CSCC#N)OCC
inactive: dose: 12.5 mg/kg/injection, schedule: Q01DX009 (ip), vehicle: saline sonified 102 % of control | dose: 12.5 mg/kg/injection, schedule: Q04DX003 (ip), vehicle: saline sonified 98 % of control | dose: 25.0 mg/kg/injection, schedule: Q01DX009 (ip), vehicle: saline sonified 104 % of control | dose: 25.0 mg/kg/injection, schedule: Q04DX003 (ip), vehicle: saline sonified 98 % of control | dose: 50.0 mg/kg/injection, schedule: Q01DX009 (ip), vehicle: saline sonified 102 % of control | dose: 50.0 mg/kg/injection, schedule: Q04DX003 (ip), vehicle: saline sonified 98 % of control

Oc1c(CN2CCOCC2)cc(CN2CCOCC2)cc1CN1CCOCC1
inactive: [9] 100 % of control | [10] 95 % of control | [11] 100 % of control

ClI(Cl)c1ccccc1
inactive: [9] 98 % of control

ClCC1C(CCl)C2(Cl)C(Cl)=C(Cl)C1(Cl)C2(Cl)Cl (centres undefined)
inactive: [9] 100 % of control | [4] 93 % of control | [10] 98 % of control | [5] 95 % of control | [11] 93 % of control | [6] 93 % of control

O=S1(=O)Cc2ccc(Br)cc2C1
inactive: [9] 103 % of control | [4] 90 % of control | [10] 101 % of control | [5] 91 % of control | [11] 97 % of control | [6] 90 % of control

C[N+]1(C)N=C([O-])N(c2cccc3ccccc23)C1=O
inactive: [1] 98 % of control | [9] 103 % of control | [2] 101 % of control | [10] 108 % of control | [3] 98 % of control

CC1(C)OC(C(COC(c2ccccc2)(c2ccccc2)c2ccccc2)OC(=O)c2ccccc2)C(C(COC(c2ccccc2)(c2ccccc2)c2ccccc2)OC(=O)c2ccccc2)O1 (centres undefined)
inactive: [12] 98 % of control | [13] 94 % of control | [14] 94 % of control
